{
  "source": "patent US20120100609A1",
  "about": "“N-LINKED GLYCAN BIOSYNTHESIS MODULATORS” (priority 2009, published 2012)",
  "data": [
    {"system": "N-linked glycans of CHO cells", "test": "N-glycan profiling of treated CHO cells by normal phase HPLC (PNGaseF release, 2AB label)", "format": "cell-based, Chinese Hamster", "conditions": "CHO cells treated with compound, doses in uM", "description": "N-linked glycans were purified from CHO cell cultures and different N-linked glycan structural peaks were separated by normal phase HPLC. For the analyses, cultured CHO cells were treated with and without the test compounds as described above and then harvested for N-glycan profiling. The spent medium was decanted and the cells were rinsed 3 times with PBS and detached with 5 mM EDTA/PBS. N-glycans were released from cells using PNGaseF (Prozyme, Cat# GKE-5006) as described by the manufacture. Released glycans were labeled with […] (2AB) (Sigma, Cat# A89804) as described by the manufacture. Non-incorporated 2AB was removed using a Discovery DPA-6S column. Briefly, the column was pre-equilibrated 2× with 1 ml 97% ACN. Samples were loaded by adding 1 ml 97% acetonitrile (ACN) to the reaction mix. The column was washed 4× with 1 ml 97% CAN. 2AB-labeled N-glycans were then eluted 2× with 0.6 ml water, dried in a vacuum centrifuge, resuspended and then analyzed by normal phase HPLC(NP-HPLC). Analogous experiments were run with Castanospermine for comparison. The results are illustrated in FIGS. 23-30. Purified 2AB-N-glycans were separated (NP-HPLC) on a 4.6×250 mm TSK Gel-Amide-80 column (Tosoh Bioscience). A gradient was run from 70% A to 50% A over 40 min at a flow rate of 1.2 ml/min (Solvent A: Acetonitrile, Solvent B: 50 mM ammonium formate pH4.4). Glucose units were determined based on 2AB-labeled glucose oligomer ladder (Prozyme). 2AB-labeled N-glycan standards (Prozyme) were run and assigned glucose units.", "values": [
      {"smiles": "COc1ccc(CN/C=C2\\C(=O)N(c3nc4ccccc4s3)N=C2c2ccccc2)cc1", "note": "[compound 11]", "specific N-linked glycan peaks of the HPLC profile (peak areas as % of the untreated Cntr peak area)": "increases and decreases of specific peaks"},
      {"smiles": "CCOc1cc(/C=C(\\C#N)c2n[nH]c(N)c2C#N)ccc1O", "note": "[compound 12, (Z)-5-amino-3-(1-cyano-2-(3-ethoxy-4-hydroxyphenyl)vinyl)-1H-pyrazole-4-carbonitrile]", "specific N-linked glycan peaks of the HPLC profile (peak areas as % of the untreated Cntr peak area)": "increases and decreases of specific peaks"},
      {"smiles": "O[C@H]1[C@H](O)[C@@H](O)CN2CC[C@H](O)[C@H]12", "note": "[Castanospermine, reference compound]", "specific N-linked glycan peaks of the HPLC profile (peak areas as % of the untreated Cntr peak area)": "N-glycan Profile Changes"},
      {"smiles": "Cc1ccc(NC(=O)c2c(NC(=O)c3cccnc3)sc3c2CCC3)cc1", "note": "[compound 10, N-(3-(p-tolylcarbamoyl)-5,6-dihydro-4H-cyclopenta[b]thiophen-2-yl)nicotinamide]", "specific N-linked glycan peaks of the HPLC profile (peak areas as % of the untreated Cntr peak area)": "increases and decreases of specific peaks"}
    ]}
  ]
}
